# Laboratory results published in US20180207228A1, “PEPTIDE COMBINATIONS AND USES THEREOF FOR TREATING GRASS ALLERGY” (ALK-Abelló A/S, priority 2015, published 2018).
# Where no end group is shown, it is not given here.
# System: grass pollen allergic donor derived TCL-03 lines
# Assay: Extended cross-reactivity study, proliferation on TCL03 DK1+DK2 (Study XR2), scoring
# Format: cell-based, human
# Parameters: Cross-reactivity score: scale not given here
# Conditions: for cross-reactivity of homologue / cross-reactivity score of homologue: 2 μg/ml, 20 donors; for cross-reactivity score of homologue: score 0 to 7
# [1] = homologue of peptide 217 (Phl p 3), Table 45
# [2] = homologue of peptide 238 (Phl p 5), Table 48
# [3] = homologue of peptide 207 (Phl p 1), Table 43
# [4] = homologue of peptide 285, Table 50
# [5] = homologue of peptide 206 (Phl p 1), Table 42
# [6] = homologue of peptide 211 (Phl p 1), Table 44
# [7] = homologue of peptide 205 (Phl p 1), Table 41
molecule,measurement,setting,value
CC[C@H](C)[C@H](NC(=O)[C@H](CC(N)=O)NC(=O)[C@H](CC(C)C)NC(=O)[C@@H](NC(=O)[C@H](CC(C)C)NC(=O)[C@@H](NC(=O)[C@H](CCCCN)NC(=O)[C@H](C)NC(=O)[C@H](CC(=O)O)NC(=O)[C@H](CO)NC(=O)CN)[C@@H](C)O)C(C)C)C(=O)N[C@@H](CCCCN)C(=O)N[C@@H](Cc1ccc(O)cc1)C(=O)N[C@H](C(=O)N[C@@H](CCCNC(=N)N)C(=O)N1CCC[C@H]1C(=O)NCC(=O)N[C@@H](CC(=O)O)C(=O)N[C@H](C(=O)N[C@@H](CC(C)C)C(=O)O)[C@@H](C)O)[C@@H](C)O [compound 328],cross-reactivity of homologue,,considerable cross-reactivity
same,Cross-reactivity score,[1],5
CC[C@H](C)[C@H](NC(=O)[C@H](Cc1ccccc1)NC(=O)[C@H](CCCCN)NC(=O)[C@H](Cc1ccc(O)cc1)NC(=O)[C@@H](NC(=O)[C@H](CCC(=O)O)NC(=O)[C@H](Cc1ccc(O)cc1)NC(=O)[C@H](C)NC(=O)CNC(=O)[C@H](C)NC(=O)[C@@H](NC(=O)[C@@H](N)CO)[C@@H](C)O)[C@@H](C)O)C(=O)N1CCC[C@H]1C(=O)N[C@@H](CO)C(=O)N[C@@H](CC(C)C)C(=O)N[C@@H](CCC(=O)O)C(=O)N[C@@H](C)C(=O)N[C@@H](C)C(=O)N[C@H](C(=O)N[C@@H](CCCCN)C(=O)O)C(C)C [compound 363],Cross-reactivity score,[2],5
CC[C@H](C)[C@H](NC(=O)[C@H](Cc1ccccc1)NC(=O)[C@H](CCCCN)NC(=O)[C@H](Cc1ccc(O)cc1)NC(=O)[C@@H](NC(=O)[C@H](CCC(=O)O)NC(=O)[C@H](Cc1ccc(O)cc1)NC(=O)[C@H](C)NC(=O)CNC(=O)CNC(=O)[C@@H](NC(=O)[C@@H](N)CO)[C@@H](C)O)[C@@H](C)O)C(=O)N1CCC[C@H]1C(=O)N[C@@H](CO)C(=O)N[C@@H](CC(C)C)C(=O)N[C@@H](CCC(=O)O)C(=O)N[C@@H](C)C(=O)N[C@@H](C)C(=O)N[C@H](C(=O)N[C@@H](CCCCN)C(=O)O)C(C)C [compound 405],Cross-reactivity score,[2],5
CC[C@H](C)[C@H](NC(=O)[C@H](Cc1ccccc1)NC(=O)[C@@H](N)CCCCN)C(=O)N1CCC[C@H]1C(=O)N[C@@H](C)C(=O)N[C@@H](CC(C)C)C(=O)N[C@@H](CCC(=O)O)C(=O)N[C@@H](C)C(=O)N[C@@H](C)C(=O)N[C@H](C(=O)N[C@@H](CCCCN)C(=O)N[C@@H](CCC(N)=O)C(=O)N[C@@H](CO)C(=O)N[C@@H](Cc1ccc(O)cc1)C(=O)N[C@@H](C)C(=O)N[C@@H](C)C(=O)N[C@H](C(=O)N[C@H](C(=O)N[C@@H](C)C(=O)N[C@H](C(=O)O)[C@@H](C)O)C(C)C)[C@@H](C)O)C(C)C [compound 409],Cross-reactivity score,"homologue of peptide 239 (Phl p 5), Table 49",7
AGELELKFRRVKSEYPEGTK-OH [compound 385],Cross-reactivity score,[3],1
AGELELQFRRVKSKYPDGTK-OH [compound 383],cross-reactivity of homologue,,considerable cross-reactivity
same,Cross-reactivity score,[3],6
AGELELQFRRVKSKYPEGTK-OH [compound 382],cross-reactivity of homologue,,considerable cross-reactivity
same,Cross-reactivity score,[3],3
AGELTLQFRRVKSKYPSGTK-OH [compound 318],Cross-reactivity score,[3],0
AYESYKFIPTLEAAVKQAYA-OH [compound 413],Cross-reactivity score,[4],6
AYQSYKFIPALEAAVKQSYA-OH [compound 416],cross-reactivity score of homologue,,1
same,Cross-reactivity score,[4],1
ERDFLTSLTKDIPPRQLYAK-OH [compound 398],cross-reactivity score of homologue,,1
same,Cross-reactivity score,"homologue of peptide 222 (Phl p 4), Table 46",1
GEEDKLRKAGELMLQFRRVK-OH [compound 376],Cross-reactivity score,[5],0
GEEEKLRKAGIIDMKFRRVK-OH [compound 381],Cross-reactivity score,[5],0.5
GEEENVRGAGELELQFRRVK-OH [compound 379],Cross-reactivity score,[5],1
GEEQKLRSAGELELKFRRVK-OH [compound 380],Cross-reactivity score,[5],0.5
GEEQKLRSAGELELQFRRVK-OH [compound 377],Cross-reactivity score,[5],2
GLNDKLRHYGIFDLEFRRVR-OH [compound 378],Cross-reactivity score,[5],0
GSDPKKLVLDIKYTRPGDTL-OH [compound 397],Cross-reactivity score,[1],1
STGGAYESYKFIPTLEAAVK-OH [compound 404],Cross-reactivity score,[2],5
STGGAYQSYKFIPALEAAVK-OH [compound 406],Cross-reactivity score,[2],4
TDMNYEQIAAYHFDLAGTAF-OH [compound 370],Cross-reactivity score,"homologue of peptide 204 (Phl p 1), Table 40",2
VDKIDAAYKIAATAANAAPA-OH [compound 399],Cross-reactivity score,"homologue of peptide 235 (Phl p 5), Table 53",5
VDKIDAAYKIAATAANAAPAN-OH [compound 417],Cross-reactivity score,"homologue of peptide 286 (Phl p 5), Table 52",7
WGAIWRIDPPKPLKGPFTIR-OH [compound 391],Cross-reactivity score,[6],0.5
WGAIWRKDSDKPIKFPVTVQ-OH [compound 396],Cross-reactivity score,[6],0.5
WGAIWRMDTPKALVPPFSIR-OH [compound 394],Cross-reactivity score,[6],1
WGAIWRVDTPDKLTGPFTVR-OH [compound 392],cross-reactivity of homologue,,considerable cross-reactivity
same,Cross-reactivity score,[6],5
WGAVWRIDTPDKLTGPFTVR-OH [compound 393],cross-reactivity of homologue,,considerable cross-reactivity
same,Cross-reactivity score,[6],4
WGSIWRVDTPDKLTGPFTVR-OH [compound 395],cross-reactivity of homologue,,considerable cross-reactivity
same,Cross-reactivity score,[6],3
YGIFDLEFRRVRSKYQGGQK-OH [compound 384],Cross-reactivity score,[3],0.5
YHFDLAGTAFGAMAKKGEEE-OH [compound 375],cross-reactivity of homologue,,very high reactivity
same,Cross-reactivity score,[7],7
YHFDLSGHAFGSMAKKGEEE-OH [compound 373],cross-reactivity of homologue,,very high reactivity
same,Cross-reactivity score,[7],6
YHFDLSGHAFGSMAKKGEEQ-OH [compound 372],cross-reactivity of homologue,,very high reactivity
same,Cross-reactivity score,[7],7
YHFDLSGKAFGAMAKKGEED-OH [compound 371],Cross-reactivity score,[7],2
YHFDLSGKAFGAMAKKGEEQ-OH [compound 374],Cross-reactivity score,[7],3
